{
  "source": "patent US9458153B2",
  "about": "“Dihydroquinolizinones for the treatment and prophylaxis of hepatitis B virus infection” (Hoffmann-La Roche Inc., priority 2014, dated 2016)",
  "test_system": "HBsAg",
  "test": "HBsAg assay (chemiluminescence immunoassay of secreted HBsAg in HepG2.2.15 culture supernatant)",
  "format": "cell-based, HBV",
  "conditions": "HBsAg secretion reduced by 50% vs no drug control, HepG2.2.15 cells, CLIA kit",
  "description": "HepG2.2.15 cells (Acs et al. Proc Natl Acad Sci USA, 84, (1987), 4641-4), a constitutively HBV-expressing cell line were cultured in DMEM+Glutamax-I medium (Invitrogen, Carlsbad, Calif., USA), supplemented with 10% fetal bovine serum (Invitrogen) and G418 (Invitrogen) at a final concentration of 200 mg/L and maintained in 5% CO2 at 37° C.\nHepG2.2.15 cells were seeded in duplicate into white, 96-well plates at 1.5×10^4 cells/well. The cells were treated with a three-fold serial dilution series of the compounds in DMSO. The final DMSO concentration in all wells was 1% and DMSO was used as no drug control.\nThe HBsAg chemiluminescence immunoassay (CLIA) kit (Autobio Diagnostics Co., Zhengzhou, China, Catalog number: CL0310-2) was used to measure the levels of secreted HBV antigens semi-quantitatively. For the detection 50 μL/well culture supernatant was used and HBsAg was quantified using HBsAg chemiluminescence immunoassay (CLIA) kit (Autobio Diagnostics Co., Zhengzhou, China, Catalog number: CL0310-2), 50 μL of the supernatant was transferred to the CLIA assay plate and 50 μL of enzyme conjugate reagent was added into each well. The plates were sealed and gently agitated for 1 hour at room temperature. The supernatant-enzyme-mixture was discarded and wells were washed 6 times with 300 μL of PBS. The residual liquid was removed by plating the CLIA plate right side down on absorbent tissue paper. 25 μL of substrates A and B were added to each well. Luminance was measured using a luminometer (Mithras LB 940 Multimode Microplate Reader) after 10 minutes incubation. Dose-response curves were generated and the IC50 value was extrapolated by using the E-WorkBook Suite (ID Business Solutions Ltd., Guildford, UK).\nThe compounds of the present invention were tested for their capacity to inhibit HBsAg as described herein.",
  "note": "Structures can show the parent of a compound that is named as a salt.",
  "data": [
    {"smiles": "COc1cc2c(cc1OCC(F)F)CC(C(C)C)n1cc(C(=O)O)c(=O)cc1-2", "note": "(single isomer, unassigned; (+)) [Example 142, (+)-9-(2,2-difluoroethoxy)-6-isopropyl-10-methoxy-2-oxo-6,7-dihydrobenzo[a]quinolizine-3-carboxylic acid]", "values": [
      {"measurement": "IC50", "result": 4, "unit": "nM"}
    ]},
    {"smiles": "COc1cc2c(cc1OCC(C)(C)CO)CC(C(C)C)n1cc(C(=O)O)c(=O)cc1-2", "note": "(single isomer, unassigned; (+)) [Example 145, (+)-9-(3-hydroxy-2,2-dimethyl-propoxy)-6-isopropyl-10-methoxy-2-oxo-6,7-dihydrobenzo[a]quinolizine-3-carboxylic acid]", "values": [
      {"measurement": "IC50", "result": 6, "unit": "nM"}
    ]},
    {"smiles": "COc1cc2c(cc1OCC(C)(C)CO)CC(C(C)(C)C)n1cc(C(=O)O)c(=O)cc1-2", "note": "(single isomer, unassigned; (+)) [Example 150, (+)-6-tert-butyl-9-(3-hydroxy-2,2-dimethyl-propoxy)-10-methoxy-2-oxo-6,7-dihydrobenzo[a]quinolizine-3-carboxylic acid]", "values": [
      {"measurement": "IC50", "result": 2, "unit": "nM"}
    ]},
    {"smiles": "COc1cc2c(cc1OCCCCCO)CC(C(C)(C)C)n1cc(C(=O)O)c(=O)cc1-2", "note": "(single isomer, unassigned; (+)) [Example 153, (+)-6-tert-butyl-9-(5-hydroxypentoxy)-10-methoxy-2-oxo-6,7-dihydrobenzo[a]quinolizine-3-carboxylic acid]", "values": [
      {"measurement": "IC50", "result": 1, "unit": "nM"}
    ]},
    {"smiles": "COc1cc2c(cc1OCCCCCCO)CC(C(C)(C)C)n1cc(C(=O)O)c(=O)cc1-2", "note": "(single isomer, unassigned; (+)) [Example 156, (+)-6-tert-butyl-9-(6-hydroxyhexoxy)-10-methoxy-2-oxo-6,7-dihydrobenzo[a]quinolizine-3-carboxylic acid]", "values": [
      {"measurement": "IC50", "result": 1, "unit": "nM"}
    ]},
    {"smiles": "COc1cc2c(cc1OCCCCCCNC(=O)OC(C)(C)C)CC(C(C)(C)C)n1cc(C(=O)O)c(=O)cc1-2", "note": "(single isomer, unassigned; (+)) [Example 162, (+)-9-[6-(tert-butoxycarbonylamino)hexoxy]-6-tert-butyl-10-methoxy-2-oxo-6,7-dihydrobenzo[a]quinolizine-3-carboxylic acid]", "values": [
      {"measurement": "IC50", "result": 2, "unit": "nM"}
    ]},
    {"smiles": "COc1cc2c(cc1OCCCCCCN)CC(C(C)(C)C)n1cc(C(=O)O)c(=O)cc1-2", "note": "(single isomer, unassigned; (+)) [Example 164, (+)-9-(6-aminohexoxy)-6-tert-butyl-10-methoxy-2-oxo-6,7-dihydrobenzo[a]quinolizine-3-carboxylic acid hydrochloride]", "values": [
      {"measurement": "IC50", "setting": "hydrochloride", "result": 3, "unit": "nM"}
    ]},
    {"smiles": "COc1cc2c(cc1OCCCCCCCCNC(=O)OC(C)(C)C)CC(C(C)(C)C)n1cc(C(=O)O)c(=O)cc1-2", "note": "(single isomer, unassigned; (+)) [Example 168, (+)-9-[8-(tert-butoxycarbonylamino)octoxy]-6-tert-butyl-10-methoxy-2-oxo-6,7-dihydrobenzo[a]quinolizine-3-carboxylic acid]", "values": [
      {"measurement": "IC50", "result": 6, "unit": "nM"}
    ]},
    {"smiles": "COc1cc2c(cc1OCCCCCCCCN)CC(C(C)(C)C)n1cc(C(=O)O)c(=O)cc1-2", "note": "(single isomer, unassigned; (+)) [Example 170, (+)-9-(8-aminooctoxy)-6-tert-butyl-10-methoxy-2-oxo-6,7-dihydrobenzo[a]quinolizine-3-carboxylic acid hydrochloride]", "values": [
      {"measurement": "IC50", "setting": "hydrochloride", "result": 8, "unit": "nM"}
    ]},
    {"smiles": "COc1cc2c(cc1OCCCCCN)CC(C(C)(C)C)n1cc(C(=O)O)c(=O)cc1-2", "note": "(single isomer, unassigned; (+)) [Example 173, (+)-9-(5-aminopentoxy)-6-tert-butyl-10-methoxy-2-oxo-6,7-dihydrobenzo[a]quinolizine-3-carboxylic acid hydrochloride]", "values": [
      {"measurement": "IC50", "setting": "hydrochloride", "result": 21, "unit": "nM"}
    ]},
    {"smiles": "COc1cc2c(cc1OCCCSC)CC(C(C)(C)C)n1cc(C(=O)O)c(=O)cc1-2", "note": "(single isomer, unassigned; (+)) [Example 184, (+)-6-tert-butyl-10-methoxy-9-(3-methylsulfanylpropoxy)-2-oxo-6,7-dihydrobenzo[a]quinolizine-3-carboxylic acid]", "values": [
      {"measurement": "IC50", "result": 1, "unit": "nM"}
    ]}
  ]
}
